Data from patent US20100015141A1, “4-PHENOXY-6-ARYL-1H-PYRAZOLO[3,4-D]PYRIMIDINE AND N-ARYL-6-ARYL-1H-PYRAZOLO[3,4-D]PYRIMIDIN-4-AMINE COMPOUNDS, THEIR USE AS MTOR KINASE AND PI3 KINASE INHIBITORS, AND THEIR SYNTHESES” (Wyeth, priority 2008, published 2010).

How the values were obtained:
Type in all cases: biochemical
mTOR = mTOR (Homo sapiens, UniProt P42345); test: mTOR enzyme assay (DELFIA, His6-S6K phosphorylation); design: FLAG; details: 100 μM ATP, 1.25 μM His6-S6K
PI3K-α = PI3K-α (Homo sapiens, UniProt P42336); test: PI3K-alpha fluorescence polarization assay; details: 20 μM PIP2, 25 μM ATP
Chain of PI3K-α (P42336 whole entry, species assumed): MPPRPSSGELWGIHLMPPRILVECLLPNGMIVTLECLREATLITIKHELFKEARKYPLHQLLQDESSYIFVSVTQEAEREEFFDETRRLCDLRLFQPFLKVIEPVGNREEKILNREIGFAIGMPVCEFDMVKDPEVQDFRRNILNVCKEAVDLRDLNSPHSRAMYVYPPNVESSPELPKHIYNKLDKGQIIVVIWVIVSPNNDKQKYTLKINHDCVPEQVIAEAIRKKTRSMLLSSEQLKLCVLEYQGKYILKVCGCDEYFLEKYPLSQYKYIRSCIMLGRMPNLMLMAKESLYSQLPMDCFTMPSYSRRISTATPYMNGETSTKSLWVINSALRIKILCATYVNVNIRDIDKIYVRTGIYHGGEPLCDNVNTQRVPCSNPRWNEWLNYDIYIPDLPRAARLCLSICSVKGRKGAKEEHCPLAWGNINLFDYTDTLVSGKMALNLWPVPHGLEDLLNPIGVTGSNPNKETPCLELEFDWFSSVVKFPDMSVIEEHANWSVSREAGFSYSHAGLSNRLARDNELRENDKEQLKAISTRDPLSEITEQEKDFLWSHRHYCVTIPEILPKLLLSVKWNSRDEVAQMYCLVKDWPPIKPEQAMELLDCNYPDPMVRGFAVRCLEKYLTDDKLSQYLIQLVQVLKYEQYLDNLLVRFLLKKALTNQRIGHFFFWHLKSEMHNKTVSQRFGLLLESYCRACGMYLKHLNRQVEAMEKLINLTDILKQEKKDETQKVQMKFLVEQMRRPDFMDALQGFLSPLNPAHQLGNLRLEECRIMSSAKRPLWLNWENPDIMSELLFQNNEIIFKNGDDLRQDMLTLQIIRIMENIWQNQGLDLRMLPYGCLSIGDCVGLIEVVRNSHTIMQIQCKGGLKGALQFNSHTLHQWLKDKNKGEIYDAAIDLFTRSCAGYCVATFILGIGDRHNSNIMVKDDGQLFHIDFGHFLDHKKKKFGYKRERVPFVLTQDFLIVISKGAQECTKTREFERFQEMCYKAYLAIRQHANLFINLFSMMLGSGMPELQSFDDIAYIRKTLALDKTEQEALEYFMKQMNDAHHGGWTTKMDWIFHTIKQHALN
Chain of PI3K-α (P27986 whole entry partner, species assumed): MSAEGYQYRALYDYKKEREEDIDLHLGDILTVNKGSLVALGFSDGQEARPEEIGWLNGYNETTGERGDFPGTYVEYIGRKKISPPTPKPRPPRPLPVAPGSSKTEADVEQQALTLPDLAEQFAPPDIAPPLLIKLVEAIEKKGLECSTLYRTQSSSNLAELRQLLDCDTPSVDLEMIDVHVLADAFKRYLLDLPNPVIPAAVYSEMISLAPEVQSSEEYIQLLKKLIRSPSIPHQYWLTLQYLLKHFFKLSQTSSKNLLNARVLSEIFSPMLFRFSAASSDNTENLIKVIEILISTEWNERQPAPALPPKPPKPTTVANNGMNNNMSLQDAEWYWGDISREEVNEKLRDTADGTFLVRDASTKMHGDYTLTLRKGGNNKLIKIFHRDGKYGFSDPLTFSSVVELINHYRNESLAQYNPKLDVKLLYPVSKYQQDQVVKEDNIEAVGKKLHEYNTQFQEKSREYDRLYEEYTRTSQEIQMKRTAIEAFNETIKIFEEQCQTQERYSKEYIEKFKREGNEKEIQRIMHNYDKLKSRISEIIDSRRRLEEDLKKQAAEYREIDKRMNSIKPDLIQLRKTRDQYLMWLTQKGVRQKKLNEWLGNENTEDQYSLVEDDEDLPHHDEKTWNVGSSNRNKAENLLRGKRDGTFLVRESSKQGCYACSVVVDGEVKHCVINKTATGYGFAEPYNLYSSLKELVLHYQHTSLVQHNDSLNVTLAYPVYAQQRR
Description: (§1) The reaction buffer was 20 mM HEPES pH7.5, 2 mM MgCl2, 0.05% CHAPS, and 0.01% βME (added fresh). The substrate solution was 40 μM PIP2 (diC8, Echelon, Salt Lake City Utah cat #P-4508, 1 mM in water) and 50 μM ATP in the reaction buffer. Nunc 384-well black polypropylene fluorescent plates were used for PI3K assays. The assay is run by putting 9.5 μl of freshly diluted enzyme in the reaction buffer per well, adding 0.5 μl of diluted drug or DMSO, and mixing. Then 10 μl of the substrate solution is added to each well to start the reaction. A final concentration of 20 μM PIP2 and 25 μM ATP in the reaction was used. Reactions were allowed to proceed for 30-60 minutes at room temperature. After 30-60 minutes, 20 μl of a solution of 10 nM TAMRA detector (Red detector probe-Echelon) and 2.5 uM of GST-murineGRP (1.5 mg/ml in 17% glycerol) was added per well to stop the reaction. The resulting solution was mixed well and allowed to stand for 90-110 minutes before reading plate. Assay Plates were read on Perkin-Elmer Envision plate readers with appropriate filters for Tamra [BODIPY-TMRI(1,3,4,5)P4]. Data obtained were used to calculate enzymatic activity and enzyme inhibition by inhibitor compounds. It is important to keep Red probe solutions dark. This procedure is adapted from Echelon Biosciences Inc procedure for their PI3-Kinase fluorescence polarization activity Assay kit Product number K-1100.

PI3K-γ = PI3K-γ (Homo sapiens, UniProt P48736); test: PI3K-gamma fluorescence polarization assay; details: 20 μM PIP2, 25 μM ATP
Chain of PI3K-γ (P48736 whole entry, species assumed): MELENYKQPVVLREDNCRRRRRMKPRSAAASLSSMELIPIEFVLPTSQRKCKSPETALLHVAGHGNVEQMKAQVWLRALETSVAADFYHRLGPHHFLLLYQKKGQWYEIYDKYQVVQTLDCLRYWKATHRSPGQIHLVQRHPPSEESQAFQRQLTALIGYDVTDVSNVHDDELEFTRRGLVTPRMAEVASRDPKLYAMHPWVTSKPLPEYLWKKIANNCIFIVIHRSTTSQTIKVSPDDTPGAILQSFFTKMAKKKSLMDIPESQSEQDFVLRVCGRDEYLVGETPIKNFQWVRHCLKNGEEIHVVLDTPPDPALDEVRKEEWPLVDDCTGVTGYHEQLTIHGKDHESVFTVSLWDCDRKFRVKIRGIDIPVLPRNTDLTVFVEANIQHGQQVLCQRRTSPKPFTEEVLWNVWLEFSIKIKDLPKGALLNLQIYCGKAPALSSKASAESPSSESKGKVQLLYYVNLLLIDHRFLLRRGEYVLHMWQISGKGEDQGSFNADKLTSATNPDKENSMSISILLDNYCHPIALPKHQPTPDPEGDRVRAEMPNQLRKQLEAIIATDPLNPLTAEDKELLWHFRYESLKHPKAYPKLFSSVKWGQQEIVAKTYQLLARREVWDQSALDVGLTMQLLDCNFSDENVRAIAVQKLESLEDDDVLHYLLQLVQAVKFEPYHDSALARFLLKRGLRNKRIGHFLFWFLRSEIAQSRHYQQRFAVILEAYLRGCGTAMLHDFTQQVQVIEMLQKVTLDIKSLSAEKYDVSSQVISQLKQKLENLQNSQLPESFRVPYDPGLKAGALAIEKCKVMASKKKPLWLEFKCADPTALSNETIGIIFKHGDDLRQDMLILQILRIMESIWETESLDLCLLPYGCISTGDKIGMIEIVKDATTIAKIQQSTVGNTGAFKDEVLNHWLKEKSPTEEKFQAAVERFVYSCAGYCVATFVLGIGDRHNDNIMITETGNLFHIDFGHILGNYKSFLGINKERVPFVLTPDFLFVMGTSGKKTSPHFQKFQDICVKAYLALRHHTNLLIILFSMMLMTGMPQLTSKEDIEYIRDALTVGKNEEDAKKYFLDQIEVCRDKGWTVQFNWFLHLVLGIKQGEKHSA
Description: as §1

| Compound | IC50 (mTOR) | IC50 (PI3K-α) | IC50 (PI3K-γ) |
| --- | --- | --- | --- |
| Cn1cc(-c2nc(Oc3ccc4[nH]ccc4c3)c3cnn(C)c3n2)cn1 [Example 59, 4-(1H-indol-5-yloxy)-1-methyl-6-(1-methyl-1H-pyrazol-4-yl)-1H-pyrazolo[3,4-d]pyrimidine] | > 20000 nM | 2870 nM | 2510 nM |
| CNC(=O)Nc1cccc(-c2nc(Nc3ccc(C(N)=O)cc3)c3cnn(C)c3n2)c1 [Example 78, 4-(1-methyl-6-(3-(3-methylureido)phenyl)-1H-pyrazolo[3,4-d]pyrimidin-4-ylamino)benzamide] | 775 nM | 277 nM | 3600 nM |
| COc1ccc(-c2nc(Oc3ccc4[nH]ccc4c3)c3cnn(C)c3n2)cc1OC [Example 39, 6-(3,4-dimethoxyphenyl)-4-(1H-indol-5-yloxy)-1-methyl-1H-pyrazolo[3,4-d]pyrimidine] | 2800 nM | 160 nM | 118 nM |
| Cn1ncc2c(Nc3ccc(C(N)=O)cc3)nc(Nc3ccc(NC(=O)Nc4ccc(C(=O)N5CCOCC5)cc4)cc3)nc21 [Example 84, 4-[(1-Methyl-6-{[4-({[4-(morpholin-4-ylcarbonyl)phenyl]carbamoyl}amino)phenyl]amino}-1H-pyrazolo[3,4-d]pyrimidin-4-yl)amino]benzamide] | 7 nM | 0.7 nM | 5 nM |
| Cn1ncc2c(Nc3ccc(C(N)=O)cc3)nc(Nc3cccc(NC(=O)Nc4cccnc4)c3)nc21 [Example 80, 4-{[1-Methyl-6-({3-[(pyridin-3-ylcarbamoyl)amino]phenyl}amino)-1H-pyrazolo[3,4-d]pyrimidin-4-yl]amino}benzamide] | 3450 nM | 529 nM | 2010 nM |
| CN(C)C1CCN(C(=O)c2ccc(NC(=O)Nc3ccc(Nc4nc(Nc5ccc(C(N)=O)cc5)c5cnn(C)c5n4)cc3)cc2)CC1 [Example 82, 4-({6-[(4-{[(4-{[4-(Dimethylamino)piperidin-1-yl]carbonyl}phenyl)carbamoyl]amino}phenyl)amino]-1-methyl-1H-pyrazolo[3,4-d]pyrimidin-4-yl}amino)benzamide] | 7 nM | 0.2 nM | 5 nM |
| CN1Cc2cc(Nc3nc(Nc4ccc(NC(=O)Nc5cccnc5)cc4)nc4c3cnn4C)ccc2C1=O [Example 95, 1-[4-({1-Methyl-4-[(2-methyl-1-oxo-2,3-dihydro-1H-isoindol-5-yl)amino]-1H-pyrazolo[3,4-d]pyrimidin-6-yl}amino)phenyl]-3-pyridin-3-ylurea] | 68 nM | 6 nM | 148 nM |
| CC(C)N1CCN(C(=O)c2ccc(NC(=O)Nc3ccc(Nc4nc(Nc5ccc(C(N)=O)cc5)c5cnn(C)c5n4)cc3)cc2)CC1 [Example 87, 4-({1-Methyl-6-[(4-{[(4-{[4-(propan-2-yl)piperazin-1-yl]carbonyl}phenyl)carbamoyl]amino}phenyl)amino]-1H-pyrazolo[3,4-d]pyrimidin-4-yl}amino)benzamide] | 8 nM | 0.4 nM | 5 nM |
| COc1cccc(-c2nc(Oc3ccc(OC)c(OC)c3)c3cnn(C)c3n2)c1 [Example 45, 4-(3,4-dimethoxyphenoxy)-6-(3-methoxyphenyl)-1-methyl-1H-pyrazolo[3,4-d]pyrimidine] | > 20000 nM | 653 nM | 1290 nM |
| Cn1ncc2c(Nc3ccc4c(c3)CNC4=O)nc(Nc3ccc(NC(=O)Nc4cccnc4)cc3)nc21 [Example 94, 1-[4-({1-Methyl-4-[(1-oxo-2,3-dihydro-1H-isoindol-5-yl)amino]-1H-pyrazolo[3,4-d]pyrimidin-6-yl}amino)phenyl]-3-pyridin-3-ylurea] | 20 nM | 1.6 nM | 11 nM |
| CNC(=O)Nc1ccc(-c2nc(Nc3ccc(C(N)=O)cc3)c3cnn(C)c3n2)cc1 [Example 77, 4-(1-methyl-6-(4-(3-methylureido)phenyl)-1H-pyrazolo[3,4-d]pyrimidin-4-ylamino)benzamide] | 1700 nM | 493 nM | 2900 nM |
| CC(=O)Nc1ccc(Oc2nc(-c3ccc(O)cc3)nc3c2cnn3C)cc1 [Example 54, N-(4-{[6-(4-hydroxyphenyl)-1-methyl-1H-pyrazolo[3,4-d]pyrimidin-4-yl]oxy}phenyl)acetamide] | 4900 nM | 266 nM | 398 nM |
| CN(CCO)C(=O)c1ccc(NC(=O)Nc2ccc(Nc3nc(Nc4ccc(C(N)=O)cc4)c4cnn(C)c4n3)cc2)cc1 [Example 85, 4-({[4-({4-[(4-Carbamoylphenyl)amino]-1-methyl-1H-pyrazolo[3,4-d]pyrimidin-6-yl}amino)phenyl]carbamoyl}amino)-N-(2-hydroxyethyl)-N-methylbenzamide] | 9 nM | 0.4 nM | 11 nM |
| Cn1ncc2c(Oc3ccc4[nH]ccc4c3)nc(-c3cccc([N+](=O)[O-])c3)nc21 [Example 67, 4-(1H-indol-5-yloxy)-1-methyl-6-(3-nitrophenyl)-1H-pyrazolo[3,4-d]pyrimidine] | 16000 nM | 660 nM | 1260 nM |
| Cn1ncc2c(Nc3ccc(C(N)=O)cc3)nc(-c3ccoc3)nc21 [Example 65, 4-{[6-(3-furyl)-1-methyl-1H-pyrazolo[3,4-d]pyrimidin-4-yl]amino}benzamide] | 1300 nM | 314 nM | 1710 nM |
| CN(C)C(=O)c1ccc(Nc2nc(Nc3ccc(NC(=O)Nc4cccnc4)cc3)nc3c2cnn3C)cc1 [Example 93, N,N-Dimethyl-4-{[1-methyl-6-({4-[(pyridin-3-ylcarbamoyl)amino]phenyl}amino)-1H-pyrazolo[3,4-d]pyrimidin-4-yl]amino}benzamide] | 12 nM | 2.1 nM | 75 nM |
| CN(c1ccc(C(N)=O)cc1)c1nc(-c2ccccc2)nc2c1cnn2C [Example 34, 4-[methyl(1-methyl-6-phenyl-1H-pyrazolo[3,4-d]pyrimidin-4-yl)amino]benzamide] | 16000 nM | 6700 nM | > 10000 nM |
| CC(=O)Nc1ccc(Oc2nc(-c3ccccc3)nc3c2cnn3C)cc1 [Example 74, N-{4-[(1-methyl-6-phenyl-1H-pyrazolo[3,4-d]pyrimidin-4-yl)oxy]phenyl}acetamide] | 5500 nM | 637 nM | 1340 nM |
| Cn1ncc2c(Oc3ccc4[nH]ccc4c3)nc(-c3cccc(OCc4ccccc4Cl)c3)nc21 [Example 69, 6-{3-[(2-chlorobenzyl)oxy]phenyl}-4-(1H-indol-5-yloxy)-1-methyl-1H-pyrazolo[3,4-d]pyrimidine] | > 20000 nM | 10800 nM | > 10000 nM |
| Cn1ncc2c(Oc3ccc4[nH]ccc4c3)nc(-c3ccoc3)nc21 [Example 68, 6-(3-furyl)-4-(1H-indol-5-yloxy)-1-methyl-1H-pyrazolo[3,4-d]pyrimidine] | > 20000 nM | 1050 nM | 1030 nM |
| Cn1ncc2c(Oc3ccc4[nH]ccc4c3)nc(-c3ccc(-c4ccccc4)cc3)nc21 [Example 56, 6-biphenyl-4-yl-4-(1H-indol-5-yloxy)-1-methyl-1H-pyrazolo[3,4-d]pyrimidine] | 16000 nM | 11500 nM | > 10000 nM |
| CN(C)C1CCN(C(=O)c2ccc(NC(=O)Nc3ccc(Nc4nc(Nc5ccc(C(N)=O)cc5)c5cnn(C)c5n4)cc3)cc2)C1 (stereo not drawn) [Example 83, 4-({6-[(4-{[(4-{[3-(Dimethylamino)pyrrolidin-1-yl]carbonyl}phenyl)carbamoyl]amino}phenyl)amino]-1-methyl-1H-pyrazolo[3,4-d]pyrimidin-4-yl}amino)benzamide] | 5 nM | 0.3 nM | 7 nM |
| CC(C)c1ccc(-c2nc(Nc3ccc(C(N)=O)cc3)c3cnn(C)c3n2)cc1 [Example 61, 4-{[6-(4-isopropylphenyl)-1-methyl-1H-pyrazolo[3,4-d]pyrimidin-4-yl]amino}benzamide] | > 20000 nM | 2460 nM | > 10000 nM |
| Cc1noc(C)c1-c1nc(Oc2ccc3[nH]ccc3c2)c2cnn(C)c2n1 [Example 72, 6-(3,5-dimethylisoxazol-4-yl)-4-(1H-indol-5-yloxy)-1-methyl-1H-pyrazolo[3,4-d]pyrimidine] | > 20000 nM | 580 nM | 1350 nM |
| CC(C)NC(=O)Nc1ccc(Nc2nc(Nc3ccc(C(N)=O)cc3)c3cnn(C)c3n2)cc1 [Example 89, 4-{[1-Methyl-6-({4-[(propan-2-ylcarbamoyl)amino]phenyl}amino)-1H-pyrazolo[3,4-d]pyrimidin-4-yl]amino}benzamide] | 70 nM | 124 nM | 523 nM |
| CC(=O)Nc1ccc(N(C)c2nc(-c3ccccc3)nc3c2cnn3C)cc1 [Example 35, N-{4-[methyl(1-methyl-6-phenyl-1H-pyrazolo[3,4-d]pyrimidin-4-yl)amino]phenyl}acetamide] | 4700 nM | 1500 nM | 7470 nM |
